Reference: PubChem BioAssay (NCI)
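Step 1: Grow cells in 96-well plates. Step 2: Expose to compound for 48 hours at 5 concentrations. Step 3: Interpolate endpoints linearly; if unreached, use highest concentration. At the GI50, growth is halved. TGI denotes the concentration required for complete inhibition of growth.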

How the values were obtained:
Test in all cases: NCI tumour cell line growth inhibition, 48 h
HL-60(TB) leukemia = test system: HL-60(TB) leukemia
U251 CNS = test system: U251 CNS
MDA-MB-435 = test system: MDA-MB-435
NCI-H226 lung = test system: NCI-H226 lung
SNB-19 CNS = test system: SNB-19 CNS
DU-145 prostate = test system: DU-145 prostate
CAKI-1 renal = test system: CAKI-1 renal
UACC-62 melanoma = test system: UACC-62 melanoma
IGROV1 ovarian = test system: IGROV1 ovarian
RPMI-8226 leukemia = test system: RPMI-8226 leukemia
COLO 205 colon = test system: COLO 205 colon
UACC-257 melanoma = test system: UACC-257 melanoma
LOX IMVI melanoma = test system: LOX IMVI melanoma
HOP-62 NSCLC = test system: HOP-62 NSCLC
OVCAR-5 ovarian = test system: OVCAR-5 ovarian
HT29 colon = test system: HT29 colon
UO-31 renal = test system: UO-31 renal
MOLT-4 leukemia = test system: MOLT-4 leukemia
HCT-15 colon = test system: HCT-15 colon
A498 renal = test system: A498 renal
EKVX NSCLC = test system: EKVX NSCLC
K-562 leukemia = test system: K-562 leukemia
SF-295 CNS = test system: SF-295 CNS
NCI-H460 lung = test system: NCI-H460 lung
M14 melanoma = test system: M14 melanoma
TK-10 renal = test system: TK-10 renal
MALME-3M melanoma = test system: MALME-3M melanoma
SK-MEL-28 melanoma = test system: SK-MEL-28 melanoma
ACHN renal = test system: ACHN renal
SK-MEL-5 melanoma = test system: SK-MEL-5 melanoma
SN12C renal = test system: SN12C renal
OVCAR-3 ovarian = test system: OVCAR-3 ovarian
MDA-MB-231 breast = test system: MDA-MB-231 breast
OVCAR-4 ovarian = test system: OVCAR-4 ovarian
SF-268 CNS = test system: SF-268 CNS
OVCAR-8 ovarian = test system: OVCAR-8 ovarian
SNB-75 CNS = test system: SNB-75 CNS
BT-549 breast = test system: BT-549 breast
A549 NSCLC = test system: A549 NSCLC
MCF7 breast = test system: MCF7 breast
T-47D breast = test system: T-47D breast
HS 578T breast = test system: HS 578T breast
NCI-H23 lung = test system: NCI-H23 lung
SK-MEL-2 melanoma = test system: SK-MEL-2 melanoma
KM12 colon = test system: KM12 colon
SF-539 CNS = test system: SF-539 CNS
CCRF-CEM leukemia = test system: CCRF-CEM leukemia
HOP-92 NSCLC = test system: HOP-92 NSCLC
NCI/ADR-RES ovarian = test system: NCI/ADR-RES ovarian
SW-620 colon = test system: SW-620 colon
HCT-116 colon = test system: HCT-116 colon
PC-3 prostate = test system: PC-3 prostate
SR leukemia = test system: SR leukemia
RXF 393 renal = test system: RXF 393 renal
SK-OV-3 ovarian = test system: SK-OV-3 ovarian
786-0 renal = test system: 786-0 renal

Compound `CCC(C)[C@H]1O[C@]2(CC[C@@H]1C)C[C@@H]1C[C@@H](C/C=C(\C)[C@@H](OC3C[C@H](OC)C(O[C@H]4C[C@H](OC)[C@@H](O)[C@H](C)O4)[C@H](C)O3)[C@@H](C)/C=C/C=C3\CO[C@@H]4[C@H](O)C(C)=C[C@@H](C(=O)O1)[C@]34O)O2` (some centres not stated) has a GI50 (HL-60(TB) leukemia) of 2.18 µM, a TGI (HL-60(TB) leukemia) of 5.03 µM and a GI50 (U251 CNS) of 2.21 µM. It also gave a TGI (U251 CNS) of 10.6 µM, a GI50 (MDA-MB-435) of 3.89 µM and a TGI (MDA-MB-435) of 15.9 µM. For the same compound, the GI50 (NCI-H226 lung) was 1.58 µM, the TGI (NCI-H226 lung) was 3.79 µM and the GI50 (SNB-19 CNS) was 3.75 µM. It also gave a TGI (SNB-19 CNS) of 15.6 µM, a GI50 (DU-145 prostate) of 5.59 µM and a TGI (DU-145 prostate) of 18.1 µM. It also gave a GI50 (CAKI-1 renal) of 2.6 µM, a TGI (CAKI-1 renal) of 11.2 µM and a GI50 (UACC-62 melanoma) of 1.89 µM. For the same compound, the TGI (UACC-62 melanoma) was 6.5 µM, the GI50 (IGROV1 ovarian) was 2.95 µM and the TGI (IGROV1 ovarian) was 13.5 µM. The GI50 (RPMI-8226 leukemia) was 2.95 µM, the TGI (RPMI-8226 leukemia) was 14.9 µM and the GI50 (COLO 205 colon) was 1.63 µM. For the same compound, the TGI (COLO 205 colon) was 3.1 µM, the GI50 (UACC-257 melanoma) was 2.17 µM and the TGI (UACC-257 melanoma) was 6.25 µM. It also gave a GI50 (LOX IMVI melanoma) of 2.3 µM, a TGI (LOX IMVI melanoma) of 5.79 µM and a GI50 (HOP-62 NSCLC) of 1.8 µM. For the same compound, the TGI (HOP-62 NSCLC) was 4.85 µM, the GI50 (OVCAR-5 ovarian) was 2.05 µM and the TGI (OVCAR-5 ovarian) was 5.67 µM. The GI50 (HT29 colon) was 2.4 µM, the TGI (HT29 colon) was 5.81 µM and the GI50 (UO-31 renal) was 1.85 µM. For the same compound, the TGI (UO-31 renal) was 10.2 µM, the GI50 (MOLT-4 leukemia) was 4.77 µM and the TGI (MOLT-4 leukemia) was 20.2 µM. The GI50 (HCT-15 colon) was 2.74 µM, the TGI (HCT-15 colon) was 10.2 µM and the GI50 (A498 renal) was 1.79 µM. It also gave a TGI (A498 renal) of 7.72 µM, a GI50 (EKVX NSCLC) of 2.95 µM and a TGI (EKVX NSCLC) of 15.1 µM. For the same compound, the GI50 (K-562 leukemia) was 3.88 µM, the TGI (K-562 leukemia) was 15.4 µM and the GI50 (SF-295 CNS) was 2.54 µM. For the same compound, the TGI (SF-295 CNS) was 10.9 µM, the GI50 (NCI-H460 lung) was 2.91 µM and the TGI (NCI-H460 lung) was 10.6 µM. For the same compound, the GI50 (M14 melanoma) was 3.15 µM, the TGI (M14 melanoma) was 11.2 µM and the GI50 (TK-10 renal) was 3.08 µM. The TGI (TK-10 renal) was 12.7 µM, the GI50 (MALME-3M melanoma) was 2.74 µM and the TGI (MALME-3M melanoma) was 14.5 µM. For the same compound, the GI50 (SK-MEL-28 melanoma) was 2.67 µM, the TGI (SK-MEL-28 melanoma) was 7.21 µM and the GI50 (ACHN renal) was 1.73 µM. For the same compound, the TGI (ACHN renal) was 3.48 µM, the GI50 (SK-MEL-5 melanoma) was 1.49 µM and the TGI (SK-MEL-5 melanoma) was 2.82 µM. It also gave a GI50 (SN12C renal) of 3.08 µM, a TGI (SN12C renal) of 11.4 µM and a GI50 (OVCAR-3 ovarian) of 3.12 µM. The TGI (OVCAR-3 ovarian) was 9.3 µM, the GI50 (MDA-MB-231 breast) was 2.31 µM and the TGI (MDA-MB-231 breast) was 6.85 µM. For the same compound, the GI50 (OVCAR-4 ovarian) was 3.28 µM, the TGI (OVCAR-4 ovarian) was 10.8 µM and the GI50 (SF-268 CNS) was 4.14 µM. The TGI (SF-268 CNS) was 15.6 µM, the GI50 (OVCAR-8 ovarian) was 3.06 µM and the TGI (OVCAR-8 ovarian) was 12.5 µM. It also gave a GI50 (SNB-75 CNS) of 2.69 µM, a TGI (SNB-75 CNS) of 7.56 µM and a GI50 (BT-549 breast) of 2.73 µM. The TGI (BT-549 breast) was 7.3 µM, the GI50 (A549 NSCLC) was 2.07 µM and the TGI (A549 NSCLC) was 11.3 µM. For the same compound, the GI50 (MCF7 breast) was 3.02 µM, the TGI (MCF7 breast) was 10.8 µM and the GI50 (T-47D breast) was 1.57 µM. For the same compound, the TGI (T-47D breast) was 3.35 µM, the GI50 (HS 578T breast) was 3.76 µM and the TGI (HS 578T breast) was 20.7 µM. The GI50 (NCI-H23 lung) was 3.21 µM, the TGI (NCI-H23 lung) was 13.7 µM and the GI50 (SK-MEL-2 melanoma) was 2.04 µM. The TGI (SK-MEL-2 melanoma) was 4.79 µM, the GI50 (KM12 colon) was 3.77 µM and the TGI (KM12 colon) was 14 µM. For the same compound, the GI50 (SF-539 CNS) was 1.91 µM, the TGI (SF-539 CNS) was 3.96 µM and the GI50 (CCRF-CEM leukemia) was 4 µM. It also gave a TGI (CCRF-CEM leukemia) of 21.2 µM, a GI50 (HOP-92 NSCLC) of 1.98 µM and a TGI (HOP-92 NSCLC) of 8.18 µM. The GI50 (NCI/ADR-RES ovarian) was 3.43 µM, the TGI (NCI/ADR-RES ovarian) was 13.7 µM and the GI50 (SW-620 colon) was 3.44 µM. It also gave a TGI (SW-620 colon) of 13.8 µM, a GI50 (HCT-116 colon) of 2.72 µM and a TGI (HCT-116 colon) of 10.7 µM. The GI50 (PC-3 prostate) was 2.64 µM, the TGI (PC-3 prostate) was 12.8 µM and the GI50 (SR leukemia) was 5.79 µM. For the same compound, the TGI (SR leukemia) was 33.7 µM, the GI50 (RXF 393 renal) was 1.37 µM and the TGI (RXF 393 renal) was 2.81 µM. The GI50 (SK-OV-3 ovarian) was 2 µM, the TGI (SK-OV-3 ovarian) was 5.04 µM and the GI50 (786-0 renal) was 3.66 µM. The TGI (786-0 renal) was 14 µM.
